The text below walks through data of patent US7244763B2, “Compounds that modulate PPAR activity and methods of preparation” (Warner Lambert Company LLC, priority 2003, dated 2007).

Structures are written as SMILES.

In one data set the target is T1, hPPARβ (Homo sapiens, UniProt Q03181).
T1 construct: expression plasmids encoding hPPARα, hPPARβ or mPPARγ chimeric receptors
T1 sequence (Q03181 171-441 limits assumed): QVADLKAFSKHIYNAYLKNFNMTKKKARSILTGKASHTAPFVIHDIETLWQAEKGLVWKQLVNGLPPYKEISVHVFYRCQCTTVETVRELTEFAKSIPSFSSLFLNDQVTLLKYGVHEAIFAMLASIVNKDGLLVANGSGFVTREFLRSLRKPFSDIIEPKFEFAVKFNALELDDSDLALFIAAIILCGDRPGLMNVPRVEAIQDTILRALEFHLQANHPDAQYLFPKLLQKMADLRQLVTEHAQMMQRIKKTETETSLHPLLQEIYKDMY
The data set can be described thus: Test A transient transfection assay, HepG2 cells, Gal4-PPAR chimeric receptor luciferase reporter (Hep G2-hBeta). Type of data set: cell-based. The following applies: HepG2 cells transfected with hPPARβ chimeric receptor, 24 hours, read-out: EC50β (Hep G2-hBeta EC50). As to the method:
(§1) 1. Test A. Transient Transfections Assay Using the HepG2 Hepatoma Cell Line.
(§2) HepG2 cells were transiently transfected with an expression plasmids encoding hPPARα, hPPARβ or mPPARγ chimeric receptors and a reporter containing the yeast upstream activating sequence (UAS) upstream of the viral E1B promoter controlling a luciferase reporter gene. In addition, the plasmid pRSVβ-gal was used to control for transfection efficiency. HepG2 cells were grown in DMEM supplemented with 10% FBS and 1 μM non-essential amino acid. On the first day, cells were split into 100 mm dishes at 2.5×10^6/dish and incubated overnight at 37C.°/5% CO2. On the second day the cells were transiently transfected with plasmid DNA encoding a chimeric receptor, the luciferase reporter gene; and β-gal. For each 100 mm dish, 15 μg of luciferase reporter (PG5E1b) DNA, 15 μg of Gal4-PPAR chimeric receptor DNA, and 1.5 μg of β-gal plasmid DNA were mixed with 1.4 ml of opti-MEM in the tube. 281 μl of LipoFectamine-2000 reagent was added to 1.4 ml of opti-MEM in the tube, and incubate for 5 min at RT. The diluted Lipofectamine-2000 reagent was combined with the DNA mixture, and incubate for 20 min at RT. After fresh medium was added to each 100 mm dish of cells, 2.8 ml of Lipofectamine2000-DNA mixture was added dropwise to the 100 mm dish containing 14 ml of medium, and incubate 37° C. overnight. […]

A further data set addresses T2, human PPARβ LBD (Homo sapiens, UniProt Q03181).
T2 construct: made in house; host or cells: E. coli BL21(DE3)pLysS
T2 sequence (Q03181 211-439 limits assumed): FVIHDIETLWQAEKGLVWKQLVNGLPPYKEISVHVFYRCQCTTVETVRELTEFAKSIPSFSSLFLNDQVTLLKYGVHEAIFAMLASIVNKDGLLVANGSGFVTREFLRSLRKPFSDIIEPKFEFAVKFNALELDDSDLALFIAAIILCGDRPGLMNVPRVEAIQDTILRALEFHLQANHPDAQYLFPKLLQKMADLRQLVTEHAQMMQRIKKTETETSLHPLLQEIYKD
As to the kind of experiment: Test B radioligand competition binding assay (SPA), PPARβ LBD-GST fusion protein. The following applies: concentration that inhibits 50% of interaction between PPARβ LBD and tritiated ligand. An excerpt:
2. Test B. Radioligand Binding Assay
The ability of a compound to interact with PPARβ can be determined using a competition-based receptor binding assay that employs a radiolabeled PPARβ ligand together with a fragment of the PPARβ receptor containing the ligand binding domain (LBD) fused to the protein glutathione-S-transferase (GST). • [1] Preparation of PPARβ LBD-GST fusion protein. The ligand binding domain of the human PPARβ LBD-GST fusion protein can be expressed in E. coli and purified as outlined below. DNA encoding the LBD of human PPARβ is amplified via PCR and inserted in-frame into the bacterial expression vector pGEX-2t PPARβ LBD-GST fusion proteins are expressed in BL21(DE3)pLysS cells. After a 1–2 hr incubation with up to 1 mM IPTG, the cells are lysed by freeze-thaw in buffer containing 50 mM Tris (pH=8), 250 mM KCl, 10 mM DTT, 1 mM PMSF, and 1% triton X-100. After room temperature DNAse and RNAse treatment for 15 min and centrifugation for 1 hr at 50,000×g, 1.5 ml of a glutathione-Sepharose 4B slurry in PBS is added to the resulting supernatant and the mixture is incubated at room temperature for 30 min. […] After incubation with shaking at room temperature for 30 minutes, radioactivity bound to the PPARβ LBD-GST fusion protein/anti-GST/SPA antibody-binding bead complex is assessed using a Wallac MicroBeta plate reader. […]

The target in a further data set is T3, hPPARα (Homo sapiens, UniProt Q07869).
T3 construct: expression plasmids encoding hPPARα, hPPARβ or mPPARγ chimeric receptors
T3 sequence (Q07869 200-468 limits assumed): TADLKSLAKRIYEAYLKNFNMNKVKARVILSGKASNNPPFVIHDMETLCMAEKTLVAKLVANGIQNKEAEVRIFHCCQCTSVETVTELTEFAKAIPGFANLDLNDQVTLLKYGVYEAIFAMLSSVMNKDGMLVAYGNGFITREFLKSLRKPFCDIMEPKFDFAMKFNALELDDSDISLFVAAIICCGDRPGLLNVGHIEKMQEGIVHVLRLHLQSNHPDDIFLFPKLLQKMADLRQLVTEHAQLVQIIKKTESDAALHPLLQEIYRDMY
As to the kind of experiment: Test A transient transfection assay, HepG2 cells, Gal4-PPAR chimeric receptor luciferase reporter (Hep G2-hAlpha). Type of data set: cell-based. The following applies: HepG2 cells transfected with hPPARα chimeric receptor, 24 hours, read-out: EC50α (Hep G2-hAlpha EC50). As to the method: as §1, §2

The next data set addresses T4, PPARαLBD (Homo sapiens, UniProt Q07869).
T4 construct: GST (inferred from 'similar procedure')
T4 sequence (Q07869 239-466 limits assumed): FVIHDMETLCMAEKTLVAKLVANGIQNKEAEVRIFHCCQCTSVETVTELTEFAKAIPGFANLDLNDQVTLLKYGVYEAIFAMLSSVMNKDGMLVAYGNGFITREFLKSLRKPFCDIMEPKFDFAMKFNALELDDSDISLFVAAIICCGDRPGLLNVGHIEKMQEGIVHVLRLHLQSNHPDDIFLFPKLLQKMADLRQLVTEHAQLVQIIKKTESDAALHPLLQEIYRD
The data set can be described thus: Test B radioligand competition binding assay, similar procedure with PPARα LBD. The following applies: competition binding to PPARα LBD.

Regarding `O=C(O)CC1CCc2cc(SCc3ccc(-c4ccc(C(F)(F)F)cn4)cc3)ccc2O1` (centres unmarked) [Compound 10, {6-[4-(5-Trifluoromethyl-pyridin-2-yl)-benzylsulfanyl]-chroman-2-yl}-acetic acid], the EC50 at hPPARβ stood at 6.66 µM.

`O=C(O)Cc1coc2cc(OCc3cc(-c4ccc(Cl)cc4)on3)ccc12` [Compound 24, {6-[5-(4-Chloro-phenyl)-isoxazol-3-ylmethoxy]-benzofuran-3-yl}-acetic acid] returned a melting point of 193 to 194 °C.

For `Cc1cc2c(CC(=O)O)csc2cc1OCc1ccccc1OCc1ccc(C(F)(F)F)cc1` [Compound 78, {5-Methyl-6-[2-(4-trifluoromethyl-benzyloxy)-benzyloxy]-benzo[b]-thiophen-3-yl}-acetic acid], the melting point was 157 to 158 °C.

Compound `Cc1cc(SCCCCOc2ccc(Cl)cc2Cl)ccc1OCC(=O)O` [Compound 31, {4-[4-(2,4-Dichloro-phenoxy)-butylsulfanyl]-2-methyl-phenoxy}-acetic acid] had a 50% inhibitory concentration (IC50) on human PPARβ LBD of 0.0068 µM.

Regarding `O=C(O)Cc1csc2c(OCc3cc(-c4ccc(Cl)cc4)on3)cccc12` [Compound 77, {7-[5-(4-Chloro-phenyl)-isoxazol-3-ylmethoxy]-benzo[b]thiophen-3-yl}-acetic acid], the melting point was 229 to 230 °C (dec.).

For the compound `O=C(O)C1(c2ccc(SCc3ccc(-c4ccc(C(F)(F)F)cc4)cc3)cc2)CC1` [Compound 36, 1-[4-(4′-Trifluoromethyl-biphenyl-4-ylmethylsulfanyl)-phenyl]-cyclopropanecarboxylic acid], at hPPARα, the EC50 turned out to be 1.96 µM.

As to `Cc1cc(SCCCc2ccc3ccccc3c2)ccc1OCC(=O)O` [Compound 27, [2-Methyl-4-(3-naphthalen-2-yl-propylsulfanyl)-phenoxy]-acetic acid], the IC50 at PPARαLBD was 3.54 µM.

Turning to `COc1cc(C(C)(C)C(=O)O)ccc1SCc1ccc(-c2ccc(C(F)(F)F)cn2)cc1` [Compound 21, 2-{3-Methoxy-4-[4-(5-trifluoromethyl-pyridin-2-yl)-benzylsulfanyl]-phenyl}-2-methyl-propionic acid], the concentration giving a half-maximal response (EC50) at hPPARβ stood at 0.303 µM. At human PPARβ LBD, this compound registered an IC50 of 0.449 µM.

Consider `O=C(O)Cc1coc2cc(OCc3ccc(OCc4ccc(C(F)(F)F)cc4)cc3)ccc12` [Compound 25, {6-[4-(4-Trifluoromethyl-benzyloxy)-benzyloxy]-benzofuran-3-yl}-acetic acid], for which the melting point is 161 to 163 °C.

Take `O=C(O)COc1ccc(SCc2ccc(OC3CCc4cc(Cl)ccc43)cc2)c2c1CCC2` (centres unmarked) [Compound 23, {7-[4-(5-Chloro-indan-1-yloxy)-benzylsulfanyl]-indan-4-yloxy}-acetic acid]: the melting point is 169 to 170 °C.
